Experimental data: ChEMBL document CHEMBL3882725, “Indazole derivatives as JNK inhibitors and compositions and methods related thereto” (2002)

biological target: Mitogen-activated protein kinase 9 (Homo sapiens, UniProt P45984); assay: Inhibition of His6-tagged JNK2 (unknown origin) assessed as reduction in c-Jun phosphorylation using GST-c-Jun (1 to 79 residues) and [gamma32P]ATP incubated for 1 hr by scintillation counting assay
Sequence (P45984 whole entry, the tested form may be a part): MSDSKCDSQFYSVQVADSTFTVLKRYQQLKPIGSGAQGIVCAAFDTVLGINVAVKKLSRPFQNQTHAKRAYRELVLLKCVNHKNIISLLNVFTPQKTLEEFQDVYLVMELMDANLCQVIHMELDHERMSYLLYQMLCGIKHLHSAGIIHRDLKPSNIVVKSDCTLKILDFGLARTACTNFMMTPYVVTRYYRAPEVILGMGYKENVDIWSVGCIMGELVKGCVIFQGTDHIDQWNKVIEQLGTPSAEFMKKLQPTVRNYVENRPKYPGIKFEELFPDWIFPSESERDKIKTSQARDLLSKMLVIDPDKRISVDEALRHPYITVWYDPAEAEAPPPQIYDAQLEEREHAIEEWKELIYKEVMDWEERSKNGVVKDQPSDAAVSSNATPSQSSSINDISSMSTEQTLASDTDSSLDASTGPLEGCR

SMILES	IC50
Fc1ccc(-c2n[nH]c3ccc(NCc4cccnc4)cc23)cc1	≤ 10 µM
COc1ccc(-c2n[nH]c3ccc(N)cc23)cc1	≤ 10 µM
Nc1ccc2[nH]nc(-c3cccc(C(F)(F)F)c3)c2c1	≤ 10 µM
COC(=O)c1ccc(C(=O)Nc2ccc3[nH]nc(-c4ccc(F)cc4)c3c2)cc1	≤ 10 µM
O=S(=O)(Nc1ccc2[nH]nc(-c3ccc(F)cc3)c2c1)c1ccccc1	≤ 10 µM
FC(F)(F)c1ccc2[nH]nc(-c3ccccc3)c2c1	≤ 10 µM
O=C(Nc1ccc2[nH]nc(-c3ccc(F)cc3)c2c1)C1CC1	≤ 10 µM
CNC(=O)c1ccc(C(=O)Nc2ccc3[nH]nc(-c4ccc(F)cc4)c3c2)cc1	1 to 10 µM
O=[N+]([O-])c1ccc2[nH]nc(-c3cccc4ccccc34)c2c1	≤ 10 µM
CCOc1cccc(-c2n[nH]c3ccc([N+](=O)[O-])cc23)c1	≤ 10 µM
Fc1ccc(-c2n[nH]c3ccc(NCc4ccncc4)cc23)cc1	1 to 10 µM
O=C(Nc1ccc2[nH]nc(-c3ccc(F)cc3)c2c1)N1CCOCC1	≤ 10 µM
CCNc1ccc2[nH]nc(-c3ccc(F)cc3)c2c1	≤ 10 µM
COc1ccc(-c2n[nH]c3ccc([N+](=O)[O-])cc23)cc1OC	≤ 10 µM
O=[N+]([O-])c1ccc2[nH]nc(-c3cccc(C(F)(F)F)c3)c2c1	≤ 10 µM
O=[N+]([O-])c1ccc2[nH]nc(-c3ccoc3)c2c1	≤ 10 µM
Nc1ccc2[nH]nc(-c3ccc(F)cc3)c2c1	≤ 10 µM
O=[N+]([O-])c1ccc2[nH]nc(-c3ccc4ccccc4c3)c2c1	≤ 10 µM
COc1ccc(-c2n[nH]c3ccc([N+](=O)[O-])cc23)cc1	≤ 10 µM
O=[N+]([O-])c1ccc2[nH]nc(-c3ccccc3)c2c1	≤ 10 µM

The next lines start with the values.

IC50	SMILES
1 to 10 µM	COc1ccc(-c2n[nH]c3ccc(NC(=O)c4ccc(C(=O)O)cc4)cc23)cc1
1 to 10 µM	Oc1ccc2[nH]nc(-c3ccccc3)c2c1
≤ 10 µM	Nc1ccc2[nH]nc(-c3ccccc3)c2c1
≤ 10 µM	COc1ccccc1C(=O)Nc1ccc2[nH]nc(-c3ccc(F)cc3)c2c1
1 to 10 µM	O=C(Nc1ccc2[nH]nc(-c3ccc(F)cc3)c2c1)c1ccccc1O
1 to 10 µM	Cc1ccccc1C(=O)Nc1ccc2[nH]nc(-c3ccc(F)cc3)c2c1
1 to 10 µM	O=C(Nc1ccc2[nH]nc(-c3ccc(F)cc3)c2c1)c1cccs1
1 to 10 µM	O=C(O)c1ccc(C(=O)Nc2ccc3[nH]nc(-c4ccccc4)c3c2)cc1
1 to 10 µM	O=C(O)c1cccc(C(=O)Nc2ccc3[nH]nc(-c4ccc(F)cc4)c3c2)c1
1 to 10 µM	O=C(Nc1ccc2[nH]nc(-c3ccccc3)c2c1)c1ccccc1O
1 to 10 µM	O=C(Nc1ccc2[nH]nc(-c3ccccc3)c2c1)c1ccccn1
1 to 10 µM	O=C(Nc1ccc2[nH]nc(-c3ccc(F)cc3)c2c1)c1ccncc1
1 to 10 µM	O=C(Nc1ccc2[nH]nc(-c3ccc(F)cc3)c2c1)c1ccccc1
1 to 10 µM	Nc1ccc(C(=O)Nc2ccc3[nH]nc(-c4ccccc4)c3c2)cc1
1 to 10 µM	O=C(Nc1ccc2[nH]nc(-c3ccc(F)cc3)c2c1)c1ccco1
1 to 10 µM	CC(=O)Nc1ccc2[nH]nc(-c3ccccc3)c2c1
≤ 10 µM	c1ccc(COc2ccc3[nH]nc(-c4ccccc4)c3c2)cc1
1 to 10 µM	O=C(O)c1ccc(C(=O)Nc2ccc3[nH]nc(-c4ccc(F)cc4)c3c2)cc1
1 to 10 µM	O=C(Nc1ccc2[nH]nc(-c3ccc(F)cc3)c2c1)c1ccccn1
≤ 10 µM	COC(=O)c1cccc(C(=O)Nc2ccc3[nH]nc(-c4ccc(F)cc4)c3c2)c1
≤ 10 µM	Cc1ccc2[nH]nc(-c3ccccc3)c2c1
1 to 10 µM	O=C(O)c1ccc(C(=O)Nc2ccc3[nH]nc(-c4ccncc4)c3c2)cc1
1 to 10 µM	O=C(Nc1ccc2[nH]nc(-c3ccccc3)c2c1)c1ccccc1
1 to 10 µM	O=C(Nc1ccc2[nH]nc(-c3ccc(F)cc3)c2c1)c1cccnc1
1 to 10 µM	Nc1cccc(C(=O)Nc2ccc3[nH]nc(-c4ccccc4)c3c2)c1
1 to 10 µM	NC(=O)c1ccc(C(=O)Nc2ccc3[nH]nc(-c4ccc(F)cc4)c3c2)cc1
